The results in this text go back to publication PMC7433010, “Exploration of multi‐target effects of 3‐benzoyl‐5‐hydroxychromen‐2‐one in Alzheimer’s disease cell and mouse models” (Aging Cell, 2020).

Data set [1] can be described thus: Cytotoxicity by survived cell number in 293 cells expressing ∆K280 TauRD‐DsRed. The settings on record: human; 293 cells expressing ∆K280 TauRD‐DsRed for 3 days. In kind it is cell-based. An excerpt: In ∆K280 TauRD‐DsRed 293 cells, a proaggregant (ΔK280) Tau repeat domain (TauRD) containing residues 244–372 of the full‐length 4R2N Tau441 was fused in‐frame with DsRed fluorophore. Compared to the wild‐type TauRD, the poorly folded ΔK280 TauRD formed aggregates, which adversely affected the folding of fused DsRed and thus decreased DsRed fluorescence, as also evidenced by increase in thioflavin S fluorescence emission (Chang et al., 2017). Thioflavin S is a reporter dye for studies of Tau toxicity and pharmacologic prevention in cell model of tauopathy (Pickhardt et al., 2017). It binds to amyloid fibrils but not monomers and gives a distinct increase in fluorescence emission. Inhibition of Tau aggregation may improve DsRed misfolding, leading to increased fluorescence in ΔK280 TauRD‐DsRed‐expressing cells. Utilizing the established Tet‐on ΔK280 TauRD‐DsRed 293 cells (Chang et al., 2016), licochalcone A and LM compounds were tested for effects of reducing Tau misfolding and anti‐oxidation (Figure S2a). Congo red was included for comparison. […] In the following experiments, DsRed fluorescence was measured in wells containing at least 80% viable cells. […] Due to the features of their effectiveness and less cytotoxicity, licochalcone A (1 μM) and LM‐031 (1 μM) were chosen as the candidate compounds for the following experiments. […] Representative DsRed and thioflavin S fluorescent images of ∆K280 TauRD‐DsRed‐expressing cells untreated or treated with congo red (10 µM), licochalcone A (1 µM), or LM‐031 (1 µM) are shown in Figure S2d.
DsRed fluorescence of proaggregant ∆K280 TauRD-DsRed 293 cells was evaluated to reflect Tau aggregation. On day 1, cells were seeded on a 96-well plate in a density of 0.8 × 10^4 cells/well. […] On the fifth day, the cells were stained with Hoechst 33342 (0.1 µg/ml; Sigma-Aldrich) for 30 min to identify total cell number; DsRed fluorescence images (543 nm excitation and 593 nm emission) were automatically captured by using the ImageXpressMICRO high-content imaging system (Molecular Devices, Sunnyvale, CA, USA) and analyzed using MetaXpress image acquisition and analysis software (Molecular Devices). In addition, the cells were fixed with paraformaldehyde (4% in PBS) for 15 minutes, permeabilized with methanol (80%) for 6 minutes at -20°C, incubated with thioflavin S (0.02%; Sigma-Aldrich) and 4’,6-diamidino-2-phenylindole (DAPI) (0.1 μg/ml; Sigma-Aldrich) for 5 minutes, and washed in ethanol (50%). Thioflavin S images ([…]) were captured and analyzed as described. In general, 2 × 10^4 cells in each biological replicate were analyzed.
Figure S2. ΔK280 TauRD-DsRed 293 cells. (a) Experimental flow chart. Cells were plated on day 1. On day 2, the cells were treated with congo red or test compounds for 8 h; addition of doxycycline (Dox; 1 µg/ml) followed. DsRed/thioﬂavin S fluorescence, ROS, and caspase 3 activity were assessed on day 5. (b) Cytotoxicity of the test compounds against 293 cells expressing ∆K280 TauRD-DsRed for 3 days using the survived cell number (n = 3). IC50 values are listed. (c) Dose response curves of LM-031 based on DsRed fluorescence measurement. (d) Fluorescent images of ΔK280 TauRD-DsRed 293 cells untreated or treated with congo red (10 µM), licochalcone A (1 µM), or LM-031 (1 µM). Nuclei were counterstained with Hoechst 33342 (blue), and merged DsRed and Hoechst 33342 signals were shown. In addition, tau aggregation was monitored by staining with thioﬂavin S (green).

The nature of data set [2]: MTT cytotoxicity in uninduced retinoic acid‐differentiated SH‐SY5Y cells. It is filed as cell-based. The settings on record: human. On the procedure: (§1) Licochalcone A and five derivative LM compounds were tested (Figure 1a). All six compounds were soluble up to 100 μM in a cell culture medium (Figure S1a). Based on molecular weight (MW), hydrogen bond donors (HBD), hydrogen bond acceptors (HBA), and calculated octanol/water partition coefficient (cLogP), all six compounds meet Lipinski's criteria in predicting oral bioavailability (Lipinski, Lombardo, Dominy, & Feeney, 1997) (Figure S1b). […] To choose the optimal treatment dose used for the best efficacy of the candidate compounds, a specific type of biphasic dose response of a compound called hormesis should take into consideration. Evidence has shown that a wide range of pharmaceutical products display a hermetic dose‐response feature, characterized by a low‐dose stimulation and a high‐dose inhibition (Calabrese et al., 2018; Concetta Scuto et al., 2019; Pilipenko et al., 2019). Therefore, we tested the compounds at a range of doses to find the optimal dose for the best therapeutic effect and the least cytotoxicity. Firstly, MTT assay was performed using uninduced ∆K280 TauRD‐DsRed 293 and retinoic acid‐differentiated SH‐SY5Y cells following treatment with the test compounds (0.1–10 μM) for 3 (for 293 cells) or 7 (for SH‐SY5Ycells) days. […] Congo red is an amyloidogenic dye known to reduce Aβ neurotoxicity (Lorenzo & Yankner, 1994).
(§2) Licochalcone A was purchased from Sigma-Aldrich, St. Louis, MO, USA. In-house LM compounds were synthesized and characterized by NMR spectrum as described (Lee et al., 2012, 2015, 2018). Tet-On ∆K280 TauRD-DsRed 293 and SH-SY5Y cells (Chang et al., 2016) were cultured in Dulbecco’s modified Eagles medium (DMEM) (293) or DMEM-F12 (SH-SY5Y) containing 10% fetal bovine serum (Invitrogen, Carlsbad, CA, USA), 5 μg/ml of blasticidin, and 100 μg/ml of hygromycin (InvivoGen, San Diego, CA, USA). Compound cytotoxicity was assessed by colorimetric assay for measuring cell metabolic activity. Briefly, 5 × 10^4 cells were plated (48-well plates), grown for 20 h, and treated with the test compounds ([…]). […], 20 µl of 3-(4,5-dimethylthiazol-2-yl)-2,5-diphenyltetrazolium bromide (MTT, 5 mg/ml in PBS; Sigma-Aldrich) was added to the cells and incubated at 37°C for 3 h. Then 200 µl of lysis buffer (10% Triton X-100, 0.1 N HCl, 18% isopropanol) was added and the absorbance of the insoluble product at OD 570 nm was measured by a microplate reader (FLx800 fluorescence microplate reader, Bio-Tek, Winooski, VT, USA). The half-maximal inhibitory concentration (IC50) was calculated using the interpolation method.
(§3) Figure S1. Test compounds. (a) Solubility (in cell culture medium) of test compounds. (b) Molecular weight (MW), hydrogen bond donor (HBD), hydrogen bond acceptor (HBA), calculated octanol-water partition coefficient (cLogP), polar surface area (PSA), and predicted blood-brain barrier (BBB) score of test compounds. (c) Cytotoxicity of test compounds against ∆K280 TauRD-DsRed 293 and SH-SY5Y cells using the MTT assay. Uninduced 293 cells were plated on day 1 and treated with 0.1–10 μM test compounds on day 2. Cell viability was measured on day 5 (n = 3). In addition, uninduced SH-SY5Y cells were seeded with all trans retinoic acid (RA; 10 µM) on day 1 and treated with 0.1–10 μM test compounds on day 2. Cell viability was measured on day 9 (n = 3). To normalize, the relative viability in compound untreated cells was set at 100%. IC50 values are listed.

Data set [3] is described as follows: MTT cytotoxicity in uninduced ∆K280 TauRD‐DsRed 293 cells. It is filed as cell-based. The settings on record: human. On the procedure: as §1, §2, §3

A word on the IC50: it is the concentration that gives 50% inhibition. Read a high IC50 as weaker potency.

With `COc1ccc(O)c(/C=C/C(=O)c2ccccc2)c1` [LM‐006], the IC50 at 3 days in data set [1] was found to be 5.3 µM; in data set [3], 6.4 µM. The molecule also displayed an IC50 at 7 days in data set [2] of 4.7 µM.
For `COc1cccc(/C=C/C(=O)c2ccc(O)cc2)c1O` [LM‐026], in that order: 8.5 µM, 7.7 µM and 5.4 µM.
Lucifer yellow: the “transport across PAMPA membrane (integrity marker)” value was “undetectable”.
In the case of `Cc1ccc(/C=C/C(=O)c2c(O)c3ccccc3oc2=O)cc1` [LM‐016], the IC50 at 3 days is 9.4 µM in data set [1] and 9.3 µM in data set [3]. Further, inhibition in data set [2] was half-maximal at 6 µM (IC50 at 7 days).
